# According to patent US11214803B2, “Modulators of YAP1 expression” (Ionis Pharmaceuticals, Inc., priority 2019, dated 2022):
# Strand notation (5' to 3'): a small letter for the sugar, then the base; units joined by * are phosphorothioate-linked, units joined directly phosphodiester-linked; [ ] holds rarer units or linkages, { } end groups; capitals alone tell only the bases. e = 2'-O-(2-methoxyethyl) (MOE); k = constrained ethyl (cEt); [5mC] = 5-methylcytosine; d = 2'-deoxy (DNA); m = 2'-O-methyl
# Tested on: Yap1 mRNA
# Test: Antisense inhibition of human Yap1 in SNU-449 cells by modified oligonucleotides, single dose (Example 5, RTS36584)
# Format: cell-based
# Settings: Table 39; SNU-449 cells, 10,000 cells per well, free uptake, 2,000 nM oligonucleotide, approx. 48 hours; RTS36584; normalized to RIBOGREEN; Yap1 mRNA relative to untreated control
# Method in brief: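 SNU-449 cells were given 2,000 nM oligonucleotide by free uptake for about 48 h. Yap1 mRNA was then measured by RT-qPCR with primer probe set RTS36584, normalized to total RNA by RIBOGREEN and expressed as percent of untreated control.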
row,Substance,YAP1 (% UTC)
1,1198412 (kT*dT*dA*dG*dG*dA*dT*dG*d[5mC]*dA*dT*kG*eG*kT*eT*kT; antisense) [Compound 1198412],17
2,1198389 (kG*dG*dT*dA*dT*dA*dA*d[5mC]*dT*dG*dG*kG*e[5mC]*kA*eA*kA; antisense) [Compound 1198389],28
3,1198400 (kA*dA*dG*d[5mC]*dA*d[5mC]*dT*dT*dT*dT*dA*k[5mC]*eA*kT*eT*kA; antisense) [Compound 1198400],62
4,1198398 (kG*d[5mC]*dA*dC*dT*dT*dT*dT*dA*d[5mC]*dA*kT*eT*kA*eG*kG) [Compound 1198398],18
5,1198386 (kT*dA*dT*dA*dT*dT*dA*dG*dA*dG*dT*kA*eT*kG*eT*kG; antisense) [Compound 1198386],77

# Same assay, conditions: Table 40 (separate experiment); SNU-449 cells, 10,000 cells per well, free uptake, 2,000 nM oligonucleotide, approx. 48 hours; RTS36584; normalized to RIBOGREEN; Yap1 mRNA relative to untreated control
row,Substance,YAP1 (% UTC)
1,1198797 (antisense kA*eA*kG*dT*dA*dA*dG*dG*dT*dT*dT*d[5mC]*e[5mC]*e[5mC]*kA*kG) [Compound 1198797],31
2,1198757 (kA*eG*kT*dG*d[5mC]*dT*dT*dT*dG*dG*dA*dA*eG*eA*kT*k[5mC]; antisense) [Compound 1198757],4
3,1198779 (antisense kA*eA*kT*dA*dT*dT*dG*d[5mC]*dA*dA*dT*d[5mC]*eT*eG*kT*k[5mC]) [Compound 1198779],49
4,1198780 (antisense kT*eA*kA*dT*dA*dT*dT*dG*d[5mC]*dA*dA*dT*e[5mC]*eT*kG*kT) [Compound 1198780],80

# Same assay, conditions: Table 42 (separate experiment); SNU-449 cells, 10,000 cells per well, free uptake, 2,000 nM modified oligonucleotide, approximately 48 hours; RTS36584; normalized to RIBOGREEN; Yap1 mRNA relative to untreated control cells
row,Substance,YAP1 (% UTC)
1,1198702 (kT*kT*dT*dA*dA*dA*dG*dT*dG*dT*dA*dT*kG*eT*k[5mC]*eA; antisense) [Compound 1198702],74
2,1198208 (kA*kG*dA*dG*dT*dA*dT*dG*dT*dG*dG*e[5mC]*eA*eA*kT*kA; antisense) [Compound 1198208],25
3,1198232 (kT*kT*dT*dG*dG*dA*dA*dG*dA*dT*d[5mC]*eT*eG*eA*kA*kA) [Compound 1198232],92
4,1198213 (kA*kT*dA*dT*dT*dA*dG*dA*dG*dT*dA*eT*eG*eT*kG*kG; antisense) [Compound 1198213],16
5,1095481 (antisense kT*kG*dA*dG*dG*dT*dA*dT*dA*dA*d[5mC]*dT*kG*eG*kG*e[5mC]) [Compound 1095481],21

# Same assay, conditions: Table 43 experiment; SNU-449 cells, 10,000 cells per well, free uptake, 2,000 nM, approximately 48 hours; RTS36584; Yap1 mRNA normalized to RIBOGREEN, relative to untreated control cells
row,Substance,YAP1 (% UTC)
1,1198459 (antisense kA*kA*dA*dT*dT*dG*dT*d[5mC]*dT*d[5mC]*dA*eT*kG*e[5mC]*k[5mC]*eT) [Compound 1198459],28
2,1198251 (kT*k[5mC]*dT*dT*dA*dT*dA*dT*dG*dG*dT*eT*eT*eT*kG*kT; antisense) [Compound 1198251],83
3,1198484 (antisense kG*k[5mC]*dA*d[5mC]*dT*dT*dT*dT*dA*d[5mC]*dA*eT*kT*eA*kG*eG) [Compound 1198484],18
4,1198261 (kG*kT*dA*dA*dT*dA*dT*dT*dG*d[5mC]*dA*eA*eT*e[5mC]*kT*kG; antisense) [Compound 1198261],54

# Same assay, conditions: Table 44 experiment; SNU-449 cells, 10,000 cells per well, free uptake, 2,000 nM, approximately 48 hours; RTS36584; Yap1 mRNA normalized to RIBOGREEN, relative to untreated control cells
row,Substance,YAP1 (% UTC)
1,1198487 (antisense kT*kT*dA*dA*dG*d[5mC]*dA*d[5mC]*dT*dT*dT*eT*kA*e[5mC]*kA*eT) [Compound 1198487],62
2,1198890 (kT*kG*dT*d[5mC]*dT*d[5mC]*dA*dT*dG*d[5mC]*d[5mC]*kT*dT*kA*dT*kA) [Compound 1198890],19
3,1198511 (kA*k[5mC]*dT*d[5mC]*dT*dT*dA*dT*dA*dT*dG*eG*kT*eT*kT*eT; antisense) [Compound 1198511],53
4,1198507 (kT*kT*dA*dT*dA*dT*dG*dG*dT*dT*dT*eT*kG*eT*kG*eT; antisense) [Compound 1198507],17
5,1095622 (antisense k[5mC]*kT*dG*dA*dG*dG*dT*dA*dT*dA*dA*e[5mC]*kT*eG*kG*eG) [Compound 1095622],44

# Same assay, conditions: Table 45; Yap1 mRNA as percent of untreated control, SNU-449 cells, single dose
row,Substance,YAP1 (% UTC)
1,1198959 (kA*kG*dT*dG*dT*dA*dT*dG*dT*d[5mC]*dA*kG*dA*kA*dG*kA; antisense) [Compound 1198959],8
2,1198924 (kT*kT*dT*dG*dG*dA*dA*dG*dA*dT*d[5mC]*kT*dG*kA*dA*kA; antisense) [Compound 1198924],75
3,1198955 (kA*kT*dG*dT*dA*dA*dT*dA*dT*dT*dG*k[5mC]*dA*kA*dT*k[5mC]; antisense) [Compound 1198955],92
4,1198958 (kT*kG*dT*dA*dT*dG*dT*d[5mC]*dA*dG*dA*kA*dG*kA*dG*kT; antisense) [Compound 1198958],12

# Same assay, conditions: Table 48; Yap1 mRNA level relative to untreated control; modified oligonucleotides targeting SEQ ID NO.: 1 and 2
row,Substance,YAP1 (% UT)
1,1198287 (kA*kA*kA*dT*dT*dG*dT*d[5mC]*dT*d[5mC]*dA*dT*kG*e[5mC]*k[5mC]*eT; antisense) [Compound 1198287],13
2,1198345 (kA*kA*kT*dA*dT*dT*dG*d[5mC]*dA*dA*dT*d[5mC]*kT*eG*kT*e[5mC]; antisense) [Compound 1198345],75
3,1198325 (kA*kG*kG*dA*dT*dG*d[5mC]*dA*dT*dG*dG*dT*kT*eT*kT*eT; antisense) [Compound 1198325],34

# Same assay, conditions: Table 49; Yap1 mRNA level relative to untreated control; modified oligonucleotides targeting SEQ ID NO.: 1 and 2
row,Substance,YAP1 (% UT)
1,1198572 (antisense kA*kA*kG*d[5mC]*dA*d[5mC]*dT*dT*dT*dT*dA*d[5mC]*kA*kT*kT*eA) [Compound 1198572],53
2,1198578 (antisense GCTTTGGAAGATCTGA; chemistry not fully specified) [Compound 1198578],18
3,1198583 (antisense kA*kG*kG*dA*dT*dG*d[5mC]*dA*dT*dG*dG*dT*kT*kT*kT*eT) [Compound 1198583],27

# Same assay, conditions: Table 50; Yap1 mRNA remaining as percent of untreated control (UT), SNU-449 cells, single dose
row,Substance,YAP1 (% UT)
1,1198611 (antisense kA*kG*kT*dG*dT*dA*dT*dG*dT*d[5mC]*dA*dG*kA*kA*kG*eA) [Compound 1198611],7

# Same assay, conditions: Table 51; Yap1 mRNA remaining as percent of untreated control (UT), SNU-449 cells, single dose
row,Substance,YAP1 (% UT)
1,1197264 (kA*kT*kT*dG*mC*dA*dA*dT*d[5mC]*dT*dG*dT*d[5mC]*kT*kG*kA) [Compound 1197264],33
2,1197296 (kT*kG*k[5mC]*dT*mU*dT*dG*dG*dA*dA*dG*dA*dT*k[5mC]*kT*kG) [Compound 1197296],36
3,1197256 (antisense kA*kT*kT*dT*mA*dG*dG*dA*dT*dG*d[5mC]*dA*dT*kG*kG*kT) [Compound 1197256],31
4,1197265 (kT*kA*kA*dT*mA*dT*dT*dG*d[5mC]*dA*dA*dT*d[5mC]*kT*kG*kT) [Compound 1197265],103
5,1197258 (antisense kA*kT*kT*d[5mC]*mA*dG*dA*dT*dT*dT*dA*dG*dG*kA*kT*kG) [Compound 1197258],57
6,1197278 (kG*kA*k[5mC]*dT*mA*dA*dG*dT*dA*dA*dG*dG*dT*kT*kT*k[5mC]) [Compound 1197278],36

# Same assay, conditions: Table 52; Yap1 mRNA, modified oligonucleotides targeting SEQ ID NO: 1 and 2
row,Substance,YAP1 (% UT)
1,1200852 (kT*kG*kT*dA*dA*mU*dA*dT*dT*dG*d[5mC]*dA*dA*kT*k[5mC]*kT; antisense) [Compound 1200852],32
2,1200857 (kA*kG*kT*dG*dT*mA*dT*dG*dT*d[5mC]*dA*dG*dA*kA*kG*kA; antisense) [Compound 1200857],4
3,1200833 (kG*kA*kT*dT*dT*mA*dG*dG*dA*dT*dG*d[5mC]*dA*kT*kG*kG; antisense) [Compound 1200833],31
4,1200834 (kA*kG*kA*dT*dT*mU*dA*dG*dG*dA*dT*dG*d[5mC]*kA*kT*kG; antisense) [Compound 1200834],37
5,1200854 (kT*kA*kT*dG*dT*mA*dA*dT*dA*dT*dT*dG*d[5mC]*kA*kA*kT; antisense) [Compound 1200854],91
6,1200823 (k[5mC]*kT*kT*dT*dG*mG*dA*dA*dG*dA*dT*d[5mC]*dT*kG*kA*kA; antisense) [Compound 1200823],46
7,1200860 (kT*kA*kA*dA*dG*mU*dG*dT*dA*dT*dG*dT*d[5mC]*kA*kG*kA; antisense) [Compound 1200860],16

# Same assay, conditions: Yap1 mRNA, percent of untreated control; modified oligonucleotides targeting SEQ ID NO: 1 and 2; Table 47
row,Substance,YAP1 (% UT)
1,1197198 (antisense kA*kT*kT*d[5mC]*dA*dG*dA*dT*dT*dT*dA*dG*dG*kA*kT*kG) [Compound 1197198],139
2,1009325 (kA*kG*kA*dG*dT*dA*dT*dG*dT*dG*dG*d[5mC]*dA*kA*kT*kA; antisense) [Compound 1009325],16
3,1076187 (kG*kA*kT*dT*dT*dA*dG*dG*dA*dT*dG*d[5mC]*dA*kT*kG*kG; antisense) [Compound 1076187],17
4,1197184 (antisense kA*kG*k[5mC]*dA*d[5mC]*dT*dT*dT*dT*dA*d[5mC]*dA*dT*kT*kA*kG) [Compound 1197184],20
